From patent USRE37623E1, “Enzyme inhibitors, their synthesis, and methods for use” (priority 1993, dated 2002)
Like-named read-outs stand apart in the source and are kept apart here.

Assays:
UrdPase = biological target: T1, UrdPase; experiment: Inhibition of uridine phosphorylase in mouse liver cytosol (apparent Ki, Dixon plots); format: biochemical; settings: for Ki: enzyme from mouse liver cytosol, uridine 1 mM, ± S.D.
T1 construct: The supernatant fluids (cytosol) were collected and used as an enzyme source
Procedure: (§1) Mouse livers were obtained from female Swiss Albino (CD1) mice weighing 20-24 g (Charles River Laboratories, Boston, Mass.). Mice were sacrificed by cervical dislocation and the livers removed, weighed, minced, and homogenized in ice-cold (3:1, v/w) buffer [20 mM potassium phosphate. pH 8.0; 1 mM dithiothreitol (DTT), 1 mM EDTA] using a Polytron homogenizer (Brinkman Instruments, Westbury, N.J.). The homogenates were centrifuged at 105,000×g for 1 h. at 4° C. The supernatant fluids (cytosol) were collected and used as an enzyme source.
(§2) All assays described below were conducted at 37° C. under conditions where enzyme activity was linear with respect to time and enzyme concentration. For each inhibitor, 5 concentrations were used ranging from […]. Reactions were started by the addition of extract and stopped by boiling in a water bath for 2 minutes followed by freezing, Precipitated proteins were removed by centrifugation. Substrates were separated from products in the supematant by TLC and the radioactivity in the spots was determined on a percentage basis using a Berthold LB-2821 Automatic TLC-Linear Analyzer.
Nucleoside cleavage was measured isotopically by following the formation of nucleobases from their respective nucleosides as previously described. […] The incubation was terminated after 30 min. Uridine and thymidine were separated from their respective nucleobases on silica gel TLC plates developed with CHCl3:MEOH:AcOH (90:5:5, v/v/v). The Rf values were uridine, 0.07; uracil, 0.43; thymidine, 0.14; and thymine, 0.62.
Determination and significance of apparent Ki values was pertbrined using uridine (1 mM) and 5 different concentrations of the inhibitor ranging from […]. Apparent Ki values were estimated from Dixon's plots (1/v vs. [I]) of the data by a computer program with least squares fitting. Apparent Ki, values are related to Ki values by the following equation:
Apparent Ki=Kis(1+[S]/Km)/1+([S]/Km) (Kis/Kii)
where Kis and Kii are inhibition constants that would have been estimated from the replot of slope and intercept, respectively, of a Lineweaver-Burk plots vs. [I]. If a compound is a competitive inhibitor with respect to uridine, Kii=∝ and Kis=Ki. Therefore, the apparent .Ki=Ki(1+[S]1 Km). […] It should be noted, however, that we have not characterized the compounds used in this study with regard to the type of inhibition (competitive, noncompetitive, or uncompetitive) or whether they are substrates for the enzyme.

DHUDase = biological target: T2, DHUDase (Mus musculus, UniProt Q8CHR6); experiment: Inhibition of dihydrouracil dehydrogenase in mouse liver cytosol (apparent Ki); format: biochemical; settings: enzyme from mouse liver cytosol; 25 μM uracil; ± S.D.
T2 construct: The supernatant fluids (cytosol) were collected and used as an enzyme source; from tissue; host or cells: mouse liver cytosol (female Swiss Albino CD1 mice)
T2 sequence (Q8CHR6 1-1025): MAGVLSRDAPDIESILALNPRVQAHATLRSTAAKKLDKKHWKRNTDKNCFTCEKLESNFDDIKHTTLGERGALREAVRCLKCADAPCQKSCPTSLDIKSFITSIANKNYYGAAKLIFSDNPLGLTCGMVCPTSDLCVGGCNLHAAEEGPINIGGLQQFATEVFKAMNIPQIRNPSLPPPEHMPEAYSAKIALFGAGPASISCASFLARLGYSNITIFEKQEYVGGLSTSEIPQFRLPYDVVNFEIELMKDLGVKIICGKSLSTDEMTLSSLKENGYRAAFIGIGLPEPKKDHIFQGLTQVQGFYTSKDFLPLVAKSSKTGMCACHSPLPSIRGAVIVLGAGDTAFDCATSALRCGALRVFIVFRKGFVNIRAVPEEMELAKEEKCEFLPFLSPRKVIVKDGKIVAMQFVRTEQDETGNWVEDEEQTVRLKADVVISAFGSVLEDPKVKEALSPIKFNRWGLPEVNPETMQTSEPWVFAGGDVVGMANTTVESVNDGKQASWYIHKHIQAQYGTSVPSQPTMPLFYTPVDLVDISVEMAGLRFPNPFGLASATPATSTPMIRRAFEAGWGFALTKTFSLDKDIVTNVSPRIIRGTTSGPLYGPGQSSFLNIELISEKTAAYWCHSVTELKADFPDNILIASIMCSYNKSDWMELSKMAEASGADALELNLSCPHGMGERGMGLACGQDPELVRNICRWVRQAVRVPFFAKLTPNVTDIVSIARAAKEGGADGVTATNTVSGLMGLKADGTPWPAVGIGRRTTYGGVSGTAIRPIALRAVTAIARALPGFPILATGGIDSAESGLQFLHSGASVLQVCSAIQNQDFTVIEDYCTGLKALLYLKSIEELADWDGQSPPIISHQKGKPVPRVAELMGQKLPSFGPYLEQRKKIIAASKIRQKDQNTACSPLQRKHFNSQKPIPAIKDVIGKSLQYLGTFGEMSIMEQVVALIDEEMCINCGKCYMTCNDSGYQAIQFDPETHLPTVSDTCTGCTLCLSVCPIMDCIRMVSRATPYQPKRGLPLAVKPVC
Procedure: as §1, §2
The activity of the enzyme was measured by following the formation of dihydrouracil, carbamyl-β-alanine, and β-alanine from [6 -^14C]uracil as previously described. […] DHUDase activity was determined as the sum of the products dihydrouracil, carbamyl-β-alanine, and β-alanine. […]

[1] = Pharmacokinetics of PSAU in CD-1 mice; format: in vivo; settings: female CD-1 mice; for Cmax / half-life / MRT: mouse, ip, plasma; for Cmax: read-out: Cmax, peak plasma concentration; for half-life: read-out: Apt½, elimination half-life (converted); for MRT: read-out: MRT, mean residence time
Procedure: PSAU was injected i.p. into female CD-1 mice. At various time intervals, 250 μl of whole blood were collected from the orbital sinuses from three mice by a heparinized Natelson pipet and placed on ice. The whole blood was then centrifuged for 5 minutes to separate the plasma which was kept in a -20° C. freezer until preparation for analysis by the HPLC. The pharmacokinetic parameters were estimated by compartmental model-independent methods using a […]/Base program. The AUC was determined by the trapezoidal rule with extrapolation to time infinity using the terminal disposition slope (K) generated by a weighted nonlinear least-squares regression of an exponential fit of the data, with the weighted square factor set as the reciprocal of the calculated concentration squared. Elimination half-life of uridine was calculated from 0.693/K The total plasma clearance (C1) was calculated by dividing the dose by the AUC and the weight of the mouse. The peak plasma concentration (Cmax) values and time to peak plasma concentration (Tmax) values were observed experimental values. Renal clearance (CLR) of uridine was calculated by dividing the […] by the AUC.

SMILES: CCOCn1cc([Se]c2ccccc2)c(=O)[nH]c1=O [1-Ethoxymethyl-5-phenylselenenyluracil, 1-(Ethoxymethyl)-5-(phenylselenenyl)uracil]
- Ki (UrdPase): 313 ± 32 µM
- melting point: 143 to 145 °C

SMILES: O=c1[nH]c(=O)n([C@H]2C[C@H](O)[C@@H](CO)O2)cc1[Se]c1ccccc1 [5-(Phenylselenenyl)-2′-deoxyuridine, 5-(phenylselenenyl)-2′-deoxyuridine]
- Ki (UrdPase): 5.5 ± 0.6 µM

SMILES: O=c1[nH]c(=O)n([C@@H]2O[C@H](CO)[C@@H](O)[C@H]2O)cc1[Se]c1ccccc1 [5-(Phenylselenenyl)uridine, 5-(phenylselenenyl)uridine]
- Ki (UrdPase): 4 ± 0.2 µM

SMILES: O=c1[nH]c(=O)n(COCCO)cc1Cc1ccccc1 [5-Benzylacyclouridine (BAU), 5-Benzylacyclouridine, reference compound]
- Ki (UrdPase): 3.1 ± 0.22 µM

SMILES: O=c1[nH]cc([Se]c2ccccc2)c(=O)[nH]1 [5-Phenylselenenyluracil (PSU), 5-Phenylselenenyluracil]
- Ki (UrdPase): 205 ± 35 µM
- Ki (DHUDase): 4.8 ± 0.6 µM
- melting point: 249 to 251 °C

SMILES: O=c1[nH]cc(Sc2ccccc2)c(=O)[nH]1 [5-Phenylthiouracil (PTU), 5-(Phenylthio)uracil]
- Ki (UrdPase): 744 ± 85 µM
- Ki (DHUDase): 5.4 ± 0.6 µM

SMILES: O=c1[nH]c(=O)n(COCCO)c([Se]c2ccccc2)c1F [6-(Phenylselenenyl)acyclo-5-FUrd]
- Ki (UrdPase): 35 ± 5.6 µM

SMILES: O=c1cc([Se]c2ccccc2)n(COCCO)c(=O)[nH]1 [6-(Phenylselenenyl)acyclouridine, 1-[(2-hydroxyethoxy)methyl]-6-(phenylselenenyl)uridine]
- Ki (UrdPase): 19.3 ± 1.5 µM

SMILES: O=c1[nH]c(=O)n(COCCO)cc1[Se]c1ccccc1 [PSAU, 1-[(2-Hydroxyethoxy)methyl]-5-(phenylselenenyl)uracil]
- Ki (UrdPase): 3.8 ± 0.8 µM
- ApVd, volume of distribution ([1]; PSAU 30 mg/kg i.p.): 0.331 L/kg
- ApVd, volume of distribution ([1]; PSAU 60 mg/kg i.p.): 0.356 L/kg
- Cmax ([1]; PSAU 30 mg/kg i.p.): 100 µM
- Cmax ([1]; PSAU 60 mg/kg i.p.): 210 µM
- half-life ([1]; PSAU 30 mg/kg i.p.): 0.7 h
- MRT ([1]; PSAU 30 mg/kg i.p.): 1.28 h
- half-life ([1]; PSAU 60 mg/kg i.p.): 1.4 h
- MRT ([1]; PSAU 60 mg/kg i.p.): 2.27 h

SMILES: O=c1ccn([C@@H]2O[C@H](CO)[C@@H](O)[C@H]2O)c(=O)[nH]1 [uridine]
- Km (UrdPase; UrdPase from mouse liver, substrate): 66 µM
